ChEMBL document CHEMBL1121532, “Pyrido[2,1-b]quinazolinecarboxylic acids as orally active antiallergy agents” (1980)

Key:
Format in all cases: functional
[1] = tested on: Rattus norvegicus; assay: % inhibition of antiallergic activity in the rat passive cutaneous anaphylaxis (PCA) test after giving peroral dose of 32 mg/kg; settings: route oral
[2] = species on record: Rattus norvegicus; assay: Dose that causes 50% inhibition in the expected wheal size when given perorally; settings: po, read-out: ID50 (the source's name)
[3] = tested on: Rattus norvegicus; assay: % inhibition of antiallergic activity in the rat passive cutaneous anaphylaxis (PCA) test after giving intraperitoneal dose of 16 mg/kg; settings: ip
[4] = tested on: Rattus norvegicus; assay: % inhibition of antiallergic activity in the rat passive cutaneous anaphylaxis (PCA) test after giving intraperitoneal dose of 16 mg/kg; Not significant; settings: ip
[5] = tested on: Rattus norvegicus; assay: % inhibition of antiallergic activity in the rat passive cutaneous anaphylaxis (PCA) test after giving intraperitoneal dose of 8 mg/kg; settings: ip

| Compound | inhibition in vivo at 32 mg/kg [1] | ED50 [2] | inhibition in vivo at 16 mg/kg [3] | inhibition in vivo at 16 mg/kg [4] | inhibition in vivo at 8 mg/kg [5] |
| --- | --- | --- | --- | --- | --- |
| Cc1ccc2nc3ccc(C(=O)O)cn3c(=O)c2c1 | 83% | 3.53 mg/kg | 58% |  |  |
| CC(=O)c1ccc2nc3ccc(C(=O)O)cc3c(=O)n2c1 |  |  | 44% |  |  |
| CC(C)c1ccc2nc3ccc(C(=O)O)cc3c(=O)n2c1 | 92% | 0.026 mg/kg | 81% |  |  |
| CO/N=C(\C)c1ccc2nc3ccc(C(=O)O)cc3c(=O)n2c1 |  |  | 36% |  |  |
| Cc1ccc2nc3ccc(C(=O)O)cc3c(=O)n2c1 | 81% | 7.11 mg/kg | 69% |  |  |
| O=C(O)c1ccc2nc3ccccc3c(=O)n2c1 |  |  |  | 17% |  |
| CC(C)c1ccc2nc3ccc(C(=O)O)cn3c(=O)c2c1 | 87% | 0.45 mg/kg | 76% |  |  |
| O=C(O)c1cc(=O)c2c(OCC(O)COc3cccc4oc(C(=O)O)cc(=O)c34)cccc2o1 [CROMOLYN SODIUM] | 18% |  |  |  | 46% |
| O=C(O)c1ccc2nc3ccccn3c(=O)c2c1 [DOQUALAST] |  |  |  | 16% |  |
